Literature values as cited in patent US20190209701A1, “COMBINATION THERAPY WITH A MEK INHIBITOR, A PD-1 AXIS INHIBITOR, AND A TAXANE” (Genentech, Inc., priority 2016, published 2019).
Where two headings read alike, the source gives them in different places.

Legend:
human tumor cell lines = conditions: through inhibition of MEK1 and MEK2
[1] = system: human tumor xenograft models
[2] = system: cancer patients who harbored a BRAF, NRAS, or KRAS mutation
[3] = concentration-independent
[4] = not given; remark: listed apart in the source
[5] = not given; remark: listed apart in the source

Molecule | proliferation of a variety of human tumor cell lines (human tumor cell lines) | tumor regression ([1]; dose dependent, highest doses tested, CRC, malignant melanoma, breast carcinoma, lung carcinoma models) | ERK phosphorylation in xenograft tumor models ([1]; xenograft tumor models) | dose linearity of pharmacokinetics (dose range of 0.05 mg/kg (approximately 3.5 mg for 70 kg adult) to 80 mg) | food effect on pharmacokinetics (fed state compared with fasted state, healthy subjects) | mean terminal half-life (t1/2) (oral) [h] | absolute bioavailability (study MEK4952g in healthy subjects, 90% CI: 39.74%, 53.06%) [%] | effect of proton pump inhibitor rabeprazole on pharmacokinetics (with or without high-fat meal vs cobimetinib alone in the fasted state) | response of colorectal cancer (CRC) patients ([2]; 14 CRC patients) | unconfirmed tumor responses ([2]; Stage III of Study MEK4592g, 2 patients) [%] | patients with confirmed partial response (PR) ([2]; Study MEK4592g overall, 6 patients, all melanoma) [%] | patients with progressive disease ([2]; Study MEK4592g overall, 40 patients) [%] | binding to plasma proteins [3] [%] | Kaplan-Meier estimated overall 24-week progression-free survival (PFS) rate ([4]; Study PCD4989g, 95% CI: 12%, 53%) [%] | anti-tumor activity ([4]; across doses from 1 to 20 mg/kg) | exposure of fixed dose 800 mg q2w versus 1200 mg q3w ([5]; 800 mg every two weeks (equivalent to 10 mg/kg q2w) vs Phase III dose of 1200 mg q3w) | dose linearity of pharmacokinetics ([5]; doses ≥1 mg/kg every three weeks (q3w))
O=C(c1ccc(F)c(F)c1Nc1ccc(I)cc1F)N1CC(O)([C@@H]2CCCCN2)C1 [Cobimetinib] | inhibits proliferation | up to 100% | inhibits ERK phosphorylation | linear pharmacokinetics | not altered | 48.8 | 45.9 | minimal effect | all patients experienced progressive disease | 11.1 | 6.2 | 41.2 | 95 | – | – | – | –
Atezolizumab: anti-PD-L1 antibody, CAS Registry Number: 1422185-06-5 | – | – | – | – | – | – | – | – | – | – | – | – | – | 33 | anti-tumor activity has been observed | equivalent exposure | linear and consistent with typical IgG1 antibodies
